The values that follow come from ChEMBL document CHEMBL3774336, “Identification of spirooxindole and dibenzoxazepine motifs as potent mineralocorticoid receptor antagonists” (Bioorg Med Chem, 2016).

The target in one series is Cytochrome P450 2C9 (Homo sapiens, UniProt P11712). Kind of series: Inhibition of CYP2C9 (unknown origin). It counts as ADME.
For another series, the target named is Cytochrome P450 2D6 (Homo sapiens, UniProt P10635). Kind of series: Inhibition of CYP2D6 (unknown origin). Type of series: ADME.
Series [1] in a line: Half life of compound in rat liver microsomes. Type of series: ADME.
In series [2] the target is T1, Glucocorticoid receptor (Homo sapiens) (UniProt P04150).
T1 sequence (whole entry): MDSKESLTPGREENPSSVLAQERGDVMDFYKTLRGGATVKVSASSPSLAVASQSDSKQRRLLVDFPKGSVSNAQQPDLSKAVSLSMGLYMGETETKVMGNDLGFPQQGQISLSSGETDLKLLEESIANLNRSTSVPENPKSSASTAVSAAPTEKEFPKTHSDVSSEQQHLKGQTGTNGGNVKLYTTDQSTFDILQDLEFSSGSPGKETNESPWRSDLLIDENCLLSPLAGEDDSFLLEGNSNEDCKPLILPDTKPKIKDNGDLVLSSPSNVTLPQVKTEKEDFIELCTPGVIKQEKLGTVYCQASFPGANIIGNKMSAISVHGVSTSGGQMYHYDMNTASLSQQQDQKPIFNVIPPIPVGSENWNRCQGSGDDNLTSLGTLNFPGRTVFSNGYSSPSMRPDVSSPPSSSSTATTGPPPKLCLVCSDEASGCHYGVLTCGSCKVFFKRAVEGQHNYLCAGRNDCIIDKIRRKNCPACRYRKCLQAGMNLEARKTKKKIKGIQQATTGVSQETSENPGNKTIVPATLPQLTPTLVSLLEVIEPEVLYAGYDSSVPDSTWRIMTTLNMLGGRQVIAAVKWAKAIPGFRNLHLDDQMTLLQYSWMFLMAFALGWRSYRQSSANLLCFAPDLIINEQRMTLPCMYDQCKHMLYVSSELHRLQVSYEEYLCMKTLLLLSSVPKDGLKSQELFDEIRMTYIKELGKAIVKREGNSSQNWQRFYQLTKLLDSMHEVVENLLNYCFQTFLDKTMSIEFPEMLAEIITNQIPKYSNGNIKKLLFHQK
Kind of series: Inhibition of GST-tagged human glucocorticoid receptor LBD domain expressed in insect cells at 10 uM by Gal4-based fluorescence polarization assay.

Series [3] has as its target T2, Estrogen receptor (Homo sapiens) (UniProt P03372).
T2 sequence (whole entry): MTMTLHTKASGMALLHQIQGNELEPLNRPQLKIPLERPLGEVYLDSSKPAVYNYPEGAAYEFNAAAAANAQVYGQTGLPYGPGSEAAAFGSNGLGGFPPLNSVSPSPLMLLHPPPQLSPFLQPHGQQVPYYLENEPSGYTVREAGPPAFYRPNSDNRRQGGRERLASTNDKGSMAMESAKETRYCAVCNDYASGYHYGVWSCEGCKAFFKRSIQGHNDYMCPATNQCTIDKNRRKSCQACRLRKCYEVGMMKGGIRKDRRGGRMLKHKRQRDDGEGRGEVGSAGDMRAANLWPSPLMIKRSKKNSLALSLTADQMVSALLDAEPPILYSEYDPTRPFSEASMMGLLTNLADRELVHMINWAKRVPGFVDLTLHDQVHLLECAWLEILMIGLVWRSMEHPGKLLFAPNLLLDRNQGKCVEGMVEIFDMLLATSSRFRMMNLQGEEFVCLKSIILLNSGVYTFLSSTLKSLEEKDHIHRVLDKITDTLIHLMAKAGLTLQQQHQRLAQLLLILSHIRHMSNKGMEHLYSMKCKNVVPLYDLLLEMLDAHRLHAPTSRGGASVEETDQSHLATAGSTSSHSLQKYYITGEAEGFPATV
Kind of series: Inhibition of estrogen receptor (unknown origin) at 10 uM by Gal4-based luciferase assay.

In series [4] the target is T3, Mineralocorticoid receptor (Homo sapiens, UniProt P08235, C808S).
The target in the next series is Cytochrome P450 3A4 (Homo sapiens, UniProt P08684).
Series [5] deals with T4, Mineralocorticoid receptor (Homo sapiens), P08235 [C808S].
T4 sequence (whole entry): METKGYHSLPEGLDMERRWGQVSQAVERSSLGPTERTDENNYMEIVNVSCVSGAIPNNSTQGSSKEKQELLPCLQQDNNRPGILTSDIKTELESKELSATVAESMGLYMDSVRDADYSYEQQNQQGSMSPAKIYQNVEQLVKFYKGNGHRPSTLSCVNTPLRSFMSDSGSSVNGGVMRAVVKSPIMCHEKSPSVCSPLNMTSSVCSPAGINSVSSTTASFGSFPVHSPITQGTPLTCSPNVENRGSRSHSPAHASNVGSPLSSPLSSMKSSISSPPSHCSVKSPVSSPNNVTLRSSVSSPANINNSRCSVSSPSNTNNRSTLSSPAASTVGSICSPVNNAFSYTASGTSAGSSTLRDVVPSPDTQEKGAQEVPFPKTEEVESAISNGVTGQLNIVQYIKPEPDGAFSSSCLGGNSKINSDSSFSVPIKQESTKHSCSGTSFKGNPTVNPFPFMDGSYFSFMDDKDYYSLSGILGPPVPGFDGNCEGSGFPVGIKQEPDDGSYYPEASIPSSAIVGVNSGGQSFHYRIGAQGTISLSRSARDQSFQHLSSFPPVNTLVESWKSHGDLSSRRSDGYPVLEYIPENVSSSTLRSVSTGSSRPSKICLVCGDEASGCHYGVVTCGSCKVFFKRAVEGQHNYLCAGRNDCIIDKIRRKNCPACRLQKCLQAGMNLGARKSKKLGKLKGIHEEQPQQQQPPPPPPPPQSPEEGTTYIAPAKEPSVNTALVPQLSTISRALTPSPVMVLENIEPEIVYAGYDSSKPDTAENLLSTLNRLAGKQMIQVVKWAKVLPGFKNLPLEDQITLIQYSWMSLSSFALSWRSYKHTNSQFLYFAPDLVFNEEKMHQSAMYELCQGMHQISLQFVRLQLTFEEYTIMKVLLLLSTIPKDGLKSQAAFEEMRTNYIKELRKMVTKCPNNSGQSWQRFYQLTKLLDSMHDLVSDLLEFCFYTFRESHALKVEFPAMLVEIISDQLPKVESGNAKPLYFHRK
Kind of series: (§1) Agonist activity against 6xHis-MBP-fused human MR LBD domain (732 to 984 amino acid residues) C808S mutant expressed in Escherichia coli BL21(DE3) assessed as receptor activation after 16 hrs by luciferase assay.

Series [6] addresses T3, Mineralocorticoid receptor. The description is as §1.

Sequence of Cytochrome P450 3A4 (P08684 whole entry): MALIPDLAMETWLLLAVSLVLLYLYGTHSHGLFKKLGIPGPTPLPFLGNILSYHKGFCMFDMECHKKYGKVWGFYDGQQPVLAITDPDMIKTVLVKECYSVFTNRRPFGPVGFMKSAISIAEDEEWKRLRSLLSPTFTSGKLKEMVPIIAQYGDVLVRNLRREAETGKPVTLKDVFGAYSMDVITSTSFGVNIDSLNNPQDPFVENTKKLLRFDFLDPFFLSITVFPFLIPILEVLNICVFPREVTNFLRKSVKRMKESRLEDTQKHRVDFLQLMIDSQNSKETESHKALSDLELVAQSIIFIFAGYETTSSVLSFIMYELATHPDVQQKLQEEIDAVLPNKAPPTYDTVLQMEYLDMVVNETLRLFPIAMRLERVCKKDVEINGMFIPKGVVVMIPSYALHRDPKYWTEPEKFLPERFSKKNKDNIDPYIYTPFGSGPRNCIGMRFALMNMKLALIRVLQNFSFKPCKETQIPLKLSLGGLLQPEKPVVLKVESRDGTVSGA
Sequence of Cytochrome P450 2D6 (P10635 whole entry): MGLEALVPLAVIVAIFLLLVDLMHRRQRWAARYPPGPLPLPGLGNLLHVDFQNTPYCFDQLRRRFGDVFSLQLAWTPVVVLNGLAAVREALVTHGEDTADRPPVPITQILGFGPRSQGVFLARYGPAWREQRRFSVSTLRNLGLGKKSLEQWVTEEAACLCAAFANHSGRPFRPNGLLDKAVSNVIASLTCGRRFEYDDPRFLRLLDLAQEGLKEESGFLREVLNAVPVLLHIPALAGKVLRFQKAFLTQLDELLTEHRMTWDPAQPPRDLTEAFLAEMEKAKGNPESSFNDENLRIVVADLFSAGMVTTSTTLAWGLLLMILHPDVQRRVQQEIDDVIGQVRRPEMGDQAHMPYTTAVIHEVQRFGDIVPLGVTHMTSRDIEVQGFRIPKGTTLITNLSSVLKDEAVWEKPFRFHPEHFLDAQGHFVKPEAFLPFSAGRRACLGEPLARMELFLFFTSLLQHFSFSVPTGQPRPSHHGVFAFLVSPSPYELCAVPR
Sequence of Cytochrome P450 2C9 (P11712 whole entry): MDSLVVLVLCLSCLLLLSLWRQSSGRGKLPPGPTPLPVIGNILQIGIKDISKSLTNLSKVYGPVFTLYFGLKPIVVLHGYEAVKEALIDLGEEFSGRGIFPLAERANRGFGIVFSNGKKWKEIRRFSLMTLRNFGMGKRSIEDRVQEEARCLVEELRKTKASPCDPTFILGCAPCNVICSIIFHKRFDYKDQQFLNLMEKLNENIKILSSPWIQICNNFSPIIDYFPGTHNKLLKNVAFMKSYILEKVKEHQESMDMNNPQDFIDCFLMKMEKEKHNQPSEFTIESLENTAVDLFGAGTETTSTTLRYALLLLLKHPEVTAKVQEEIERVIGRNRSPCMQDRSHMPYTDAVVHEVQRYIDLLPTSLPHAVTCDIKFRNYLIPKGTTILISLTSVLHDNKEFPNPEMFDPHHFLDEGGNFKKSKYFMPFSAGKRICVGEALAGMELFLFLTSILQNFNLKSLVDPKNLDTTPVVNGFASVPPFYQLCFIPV
Description for Cytochrome P450 3A4: Inhibition of CYP3A4 (unknown origin)

Turning to `CN1CCC2(CC1)C(=O)Nc1cc(/C=C3\c4ccccc4COc4cc(F)ccc43)ccc12`, the half-maximal inhibitory concentration (IC50) against Cytochrome P450 2C9 is 2.83 µM; at Cytochrome P450 2D6 it was 7.62 µM; in series [4], 0.019 µM; against Cytochrome P450 3A4, 7.04 µM. The half-life in series [1] worked out at 31 min. In addition, the inhibition in series [2] and in [3] was below 40% throughout.
On to `O=C1COc2ccc(/C=C3\c4ccccc4COc4cc(F)ccc43)cc2N1`, for which, in [5], the Activity amounted to 31%. Also, the EC50 in series [6] came out at 0.004 µM. For the same compound, the inhibition in series [2] came out at 92%. Also, in [4], the half-maximal inhibitory concentration (IC50) is 0.002 µM.
